According to ChEMBL document CHEMBL1136731, “Synthesis and biological evaluation of non-peptidic cyclophilin ligands” (J Med Chem, 2003):

Tests used:
[1] = molecular target: Peptidyl-prolyl cis-trans isomerase A (Rattus norvegicus, UniProt P10111); assay: In vitro inhibition of the rotamase activity of cyclophilin A (CyPA)
[2] = molecular target: Peptidyl-prolyl cis-trans isomerase A (Rattus norvegicus) (UniProt P10111); assay: In vitro inhibition of the rotamase activity of cyclophilin A (CyPA) […]
Chain of Peptidyl-prolyl cis-trans isomerase A (Rattus norvegicus) (P10111 whole entry): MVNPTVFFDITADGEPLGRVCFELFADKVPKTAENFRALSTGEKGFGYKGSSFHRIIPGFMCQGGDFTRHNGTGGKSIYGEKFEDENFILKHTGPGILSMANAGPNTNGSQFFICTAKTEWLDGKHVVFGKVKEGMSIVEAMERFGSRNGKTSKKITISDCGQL

Chain of Peptidyl-prolyl cis-trans isomerase A (P10111 whole entry): as above

| Structure (SMILES) | IC50 [1] [nM] | inhibition [2] [%] |
| --- | --- | --- |
| O=C(Nc1ccccc1)Nc1cccc(NC(=O)c2cc(Cl)cc(Cl)c2)c1 | 1180 | – |
| O=C(Nc1cccc(NC(=O)c2cc(Cl)cc(Cl)c2)c1)c1cc(Cl)cc(Cl)c1 | 930 | – |
| CCc1ccccc1NC(=O)Nc1cccc(NC(=O)c2cc(Cl)cc(Cl)c2)c1 | 1410 | – |
| Cc1ccccc1CNC(=O)Nc1cccc(NC(=O)c2cc(Cl)cc(Cl)c2)c1 | 2120 | – |
| O=C(NCC(c1ccccc1)c1ccccc1)Nc1cccc(NC(=O)NCC(c2ccccc2)c2ccccc2)c1 | – | 100 |
| O=C(NCc1ccccc1)NC1CCCC(NC(=O)NCc2ccccc2)C1 (stereo not drawn) | – | 11 |
| CC(C)(C)NC(=O)NC1CCCC(NC(=O)NC(C)(C)C)C1 (stereo not drawn) | – | 7 |
| N#Cc1cccc(NC(=O)Nc2cccc(NC(=O)Nc3cccc(C#N)c3)c2)c1 | – | 38 |
| O=C(Cc1ccccc1)Nc1cccc(NC(=O)c2cc(Cl)cc(Cl)c2)c1 | – | 44 |
| O=C(NCc1ccccc1)Nc1cccc(NC(=O)c2cc(Cl)cc(Cl)c2)c1 | 3350 | – |
| O=C(Cc1ccc2ccccc2c1)Nc1cccc(NC(=O)c2cc(Cl)cc(Cl)c2)c1 | 880 | – |
| O=C(Nc1cccc(NC(=O)Nc2ccc(Br)cc2Br)c1)Nc1ccc(Br)cc1Br | – | 100 |
| O=C(Nc1cccc(NC(=O)c2cccnc2)c1)c1cccnc1 | – | 6 |
| O=C(NC1CCCC(NC(=O)NC23CC4CC(CC(C4)C2)C3)C1)NC12CC3CC(CC(C3)C1)C2 (stereo not drawn) | – | 28 |
| O=C(Nc1ccc(Cl)cc1)NC1CCCC(NC(=O)Nc2ccc(Cl)cc2)C1 (stereo not drawn) | – | 32 |
| O=C(NC1CCCCC1)NC1CCCC(NC(=O)NC2CCCCC2)C1 (stereo not drawn) | – | 24 |
| O=C(Nc1ccc(C(F)(F)F)cc1)Nc1cccc(NC(=O)c2cc(Cl)cc(Cl)c2)c1 | 940 | – |
| O=C(NCc1cccc2ccccc12)Nc1cccc(NC(=O)NCc2cccc3ccccc23)c1 | – | 100 |
| O=C(CC(c1ccccc1)c1ccccc1)Nc1cccc(NC(=O)c2cc(Cl)cc(Cl)c2)c1 | 870 | – |

| Structure (SMILES) | IC50 [1] [nM] | inhibition [2] [%] |
| --- | --- | --- |
| O=C(Nc1cccc(NC(=O)Nc2ccon2)c1)Nc1ccon1 | 4000 | 93 |
| O=C(Nc1cc(Cl)cc(Cl)c1)NC1CCCC(NC(=O)Nc2cc(Cl)cc(Cl)c2)C1 (stereo not drawn) | – | 100 |
| COc1cccc(NC(=O)Nc2cccc(NC(=O)Nc3cccc(OC)c3)c2)c1 | – | 8 |
| O=C(Cc1cccc2ccccc12)Nc1cccc(NC(=O)c2cc(Cl)cc(Cl)c2)c1 | 1120 | – |
| O=C(Nc1cc(Cl)cc(Cl)c1)Nc1cccc(NC(=O)c2cc(Cl)cc(Cl)c2)c1 | 690 | – |
| Cc1ccc(NC(=O)Nc2cccc(NC(=O)Nc3ccc(C)cc3C)c2)c(C)c1 | – | 100 |
| O=C(NCc1ccccc1)Nc1cccc(NC(=O)NCc2ccccc2)c1 | – | 19 |
| N#Cc1cccc(NC(=O)NC2CCCC(NC(=O)Nc3cccc(C#N)c3)C2)c1 (stereo not drawn) | – | 22 |
| Cc1ccc(NC(=O)NC2CCCC(NC(=O)Nc3ccc(C)cc3C)C2)c(C)c1 (stereo not drawn) | – | 40 |
| O=C(Nc1ccc(I)cc1)Nc1cc(NC(=O)Nc2ccc(I)cc2)c(Br)cc1Br | 590 | 100 |
| CN(C)c1ccc(NC(=O)Nc2cc(NC(=O)Nc3ccc(N(C)C)cc3)c(Br)cc2Br)cc1 | 2900 | 98 |
| O=C(Nc1ccc(Br)cc1Br)NC1CCCC(NC(=O)Nc2ccc(Br)cc2Br)C1 (stereo not drawn) | – | 100 |
| O=C(Nc1cccc2ccccc12)NC1CCCC(NC(=O)Nc2cccc3ccccc23)C1 (stereo not drawn) | 4550 | 100 |
| S=C(Nc1cc(Cl)cc(Cl)c1)Nc1cccc(NC(=S)Nc2cc(Cl)cc(Cl)c2)c1 | 480 | – |
| O=C(Nc1cccc(NC(=O)c2cc(Cl)cc(Cl)c2)c1)Nc1ccc(Br)cc1Br | 620 | – |
| O=C(Nc1cc(Cl)cc(Cl)c1)Nc1cccc(NC(=O)Nc2cc(Cl)cc(Cl)c2)c1 | – | 100 |
| COc1cccc(NC(=O)NC2CCCC(NC(=O)Nc3cccc(OC)c3)C2)c1 (stereo not drawn) | 9500 | 100 |
| O=C(Nc1cccc(NC(=O)Nc2ccccn2)c1)Nc1ccccn1 | – | 0 |
| CCCCNC(=O)Nc1cccc(NC(=O)NCCCC)c1 | – | 23 |
